Reference: patent US9708314B2, “Heterocyclic amide compound” (NISSAN CHEMICAL INDUSTRIES, LTD., priority 2013, dated 2017)

Columns and labels:
Format in all cases: in vivo
Veronica persica = assay: Test Example 4: herbicidal effect by application to foliage (diluvial soil, plastic box); settings: application to foliage, application herbicide amount 320 g/ha
Outline: (§1)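 Scores run from 0 (herbicidal ratio ≤5%) to 5 (≥90%, almost fully withered) and were assessed three weeks after foliar spraying. Seedlings had been raised for 14 days at 25-30° C in sterilized diluvial soil before treatment, with the emulsion diluted in water to the stated g/ha dose.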

Stellaria media = assay: as above; settings: application to foliage, application herbicide amount 320 g/ha
Outline: as §1

Amaranthus retroflexus = assay: as above; settings: application to foliage, application herbicide amount 320 g/ha
Outline: as §1

Scirpus juncoides [1] = assay: Test Example 1: herbicidal activity, application before weed generation in submerged conditions; settings: Application herbicide amount 320 g/ha; Seventeenth Table
Outline: (§2)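 Alluvial soil in Wagner pots flooded to 4 cm water depth; weed seeds sown and 2.5 leaf stage rice seedlings transplanted. Emulsion diluted in water applied to water surface on sowing day at stated g/ha. Greenhouse 25° C. to 30° C.; effects scored 0–5 by herbicidal ratio after three weeks.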

Monochoria vaginalis [2] = assay: as above; settings: Application herbicide amount 320 g/ha; Seventeenth Table
Outline: as §2

[3] = test system: transplanted Oryza sativa; assay: Test Example 1: effect on crop, application before weed generation in submerged conditions; settings: Application herbicide amount 320 g/ha; Seventeenth Table
Outline: as §2

Scirpus juncoides [4] = assay: Test Example 2: herbicidal activity, application during weed generation in submerged conditions; settings: Eighteenth Table; application herbicide amount 320 g/ha
Outline: (§3)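 Alluvial soil in Wagner pots flooded to 4 cm water depth; seeds sown mixed, grown in greenhouse at 25–30 °C. At one- to two-leaf stage, emulsion diluted with water to the set rate (g/ha) was applied to the water surface. Effect scored 0–5 by herbicidal ratio three weeks later.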

Monochoria vaginalis [5] = assay: as above; settings: Eighteenth Table; application herbicide amount 320 g/ha
Outline: as §3

[6] = test system: Echinochloa oryzacola Vasing.; assay: as above; settings: Eighteenth Table; application herbicide amount 320 g/ha
Outline: as §3

With C=CCc1nnc2c(C(=O)Nc3nnco3)ccc(C(F)(F)F)n12 [1-158] the “R: herbicidal effect on Veronica persica” value (Veronica persica) was 4 (Herbicidal ratio of 70% or more and less than 90%), the “P: herbicidal effect on Stellaria media” value (Stellaria media) was 5 (Herbicidal ratio of 90% or more (almost completely withered)) and the “N: herbicidal effect on Amaranthus retroflexus” value (Amaranthus retroflexus) was 4 (Herbicidal ratio of 70% or more and less than 90%). The “B: Scirpus juncoides (herbicidal effect grade)” value (Scirpus juncoides [1]) was 4 (Herbicidal ratio of 70% or more and less than 90%), the “C: Monochoria vaginalis (herbicidal effect grade)” value (Monochoria vaginalis [2]) was 0 (Herbicidal ratio of 5% or less (almost no effect)) and the “a: transplanted Oryza sativa (effect on crop grade)” value [3] was 0 (Herbicidal ratio of 5% or less (almost no effect)). For the same compound, the “B (Scirpus juncoides) herbicidal ratio grade” value (Scirpus juncoides [4]) was 3 (Herbicidal ratio of 40% or more and less than 70%), the “C (Monochoria vaginalis) herbicidal ratio grade” value (Monochoria vaginalis [5]) was 0 (Herbicidal ratio of 5% or less (almost no effect)) and the “A (Echinochloa oryzicola Vasing.) herbicidal ratio grade” value [6] was 2 (Herbicidal ratio of 20% or more and less than 40%).
